Test results from patent publication US5409933A, “Quinoline derivatives and processes for preparing the same” (priority 1993, dated 1995).
Where a name gives a salt, the structure may show the parent alone. Read-outs that look alike come from different tables or passages of the source.

Tests used:
Assay in all cases: In Vitro Anti-Bacterial Activity Test (MIC, agar dilution)
Format in all cases: cell-based
Klebsiella oxytoca 1082E = conditions: Klebsiella oxytoca 1082E; Muller-Hinton agar, 37° C., 18 hours; read-out: MIC
Procedure, shortened: (§1)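 MIC was determined by agar dilution on Mueller-Hinton agar. Each strain was inoculated at 10^7 C.F.U./ml, and growth was observed after 18 hours at 37° C, with ciprofloxacin as control agent.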

[1] = test system: Pseudomonas aeruginosa 1771; conditions: Pseudomonas aeruginosa 1771; Muller-Hinton agar, 37° C., 18 hours; read-out: MIC
Procedure, shortened: as §1

Escherichia coli DC2 = conditions: Escherichia coli, DC2, 18 h
Procedure, shortened: as §1

[2] = test system: Pseudomonas aeruginosa 9027; conditions: Muller-Hinton agar, 37° C., 18 hours, read-out: MIC
Procedure, shortened: as §1

[3] = test system: Streptococcus faecium MD8b; conditions: Enterococcus faecium, Muller-Hinton agar, 37° C., 18 hours, read-out: MIC
Procedure, shortened: as §1

Salmonella typhimurium = conditions: Salmonella enterica; Salmonella typhimurium; Muller-Hinton agar, 37° C., 18 hours; read-out: MIC
Procedure, shortened: as §1

[4] = test system: Streptococcus pyogenes 308A; conditions: Muller-Hinton agar, 37° C., 18 hours, read-out: MIC
Procedure, shortened: as §1

Escherichia coli 1507E = conditions: Escherichia coli, 1507E, 18 h, Muller-Hinton agar, 37° C.
Procedure, shortened: as §1

Enterobacter cloacae P99 = conditions: Enterobacter cloacae, P99, 18 h
Procedure, shortened: (§2)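 Read-out is visual growth inhibition on compound-containing Muller-Hinton agar, giving the MIC. Bacteria (10^7 C.F.U./ml) incubate 18 hours at 37° C.; ciprofloxacin is included as comparator drug.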

[5] = test system: Enterobacter cloacae 1321E
Procedure, shortened: as §1

Escherichia coli DC0 = conditions: Muller-Hinton agar, 37° C., 18 hours, read-out: MIC
Procedure, shortened: as §1

[6] = test system: Staphylococcus aureus 285; conditions: Staphylococcus aureus, 285, 18 h, Staphylococcus aureus 285; Muller-Hinton agar, 37° C., 18 hours; read-out: MIC
Procedure, shortened: as §1

[7] = test system: Klebsiella aerogenes 1522E; conditions: Klebsiella aerogenes, 1522E, 18 h, Klebsiella aerogenes 1522E; Muller-Hinton agar, 37° C., 18 hours; read-out: MIC
Procedure, shortened: as §1

Escherichia coli 078 = test system: Escherichia coli 078
Procedure, shortened: as §1

[8] = test system: Staphylococcus aureus SG511; conditions: Staphylococcus aureus SG511; Muller-Hinton agar, 37° C., 18 hours; read-out: MIC
Procedure, shortened: as §1

Escherichia coli TEM = conditions: Escherichia coli, 18 h, Muller-Hinton agar, 37° C.
Procedure, shortened: as §2

[9] = test system: Streptococcus pyogenes 77A
Procedure, shortened: as §1

[10] = test system: Staphylococcus aureus 503; conditions: Staphylococcus aureus 503; Muller-Hinton agar, 37° C., 18 hours; read-out: MIC
Procedure, shortened: as §1

[11] = test system: Pseudomonas aeruginosa 1592E; conditions: Muller-Hinton agar, 37° C., 18 hours, read-out: MIC
Procedure, shortened: as §1

[12] = test system: Pseudomonas aeruginosa 1771M; conditions: Pseudomonas aeruginosa, 1771M, 18 h, Muller-Hinton agar, 37° C.
Procedure, shortened: as §1

[13] = Enterobacter cloacae 1321E, Muller-Hinton agar, 37° C., 18 hours, read-out: MIC
[14] = Escherichia coli 078, Muller-Hinton agar, 37° C., 18 hours, read-out: MIC
[15] = Streptococcus pyogenes 77A, Muller-Hinton agar, 37° C., 18 hours, read-out: MIC

Row | SMILES | MIC (Klebsiella oxytoca 1082E) [µg/mL] | MIC [1] [µg/mL] | MIC (Escherichia coli DC2) [µg/mL] | MIC [2] [µg/mL] | MIC [3] [µg/mL] | MIC (Salmonella typhimurium) [µg/mL] | MIC [4] [µg/mL] | MIC (Escherichia coli 1507E) [µg/mL] | MIC (Enterobacter cloacae P99) [µg/mL] | MIC [5, 13] [µg/mL] | MIC (Escherichia coli DC0) [µg/mL] | MIC [6] [µg/mL] | MIC [7] [µg/mL] | MIC [8] [µg/mL] | MIC (Escherichia coli TEM) [µg/mL] | MIC [9, 15] [µg/mL] | MIC [10] [µg/mL] | MIC [11] [µg/mL] | MIC [12] [µg/mL] | MIC (Escherichia coli 078; Escherichia coli, 078, 18 h) [µg/mL] | further results
1 | CCOC(=O)C(C(=O)OCC)C(=O)c1cn(C2CC2)c2c(Cl)c(N3CC[C@@H](N)C3)c(F)cc2c1=O [Example 23, 1-cyclopropyl-6-fluoro-8-chloro-7-(3-3R-aminopyrrolidin-1-yl)-3-(2,2-diethoxycarbonylacetyl)-1,4-dihydro-4-oxoquinoline hydrochloride] | < 0.002 | 0.391 | 0.049 | 0.781 | 0.195 | 0.004 | 0.781 | 0.013 | 0.004 | < 0.002 | 0.195 | 0.049 | 0.025 | 0.049 | 0.004 | 0.195 | 0.049 | 0.391 | 0.098 | – | MIC (Escherichia coli 078; [14]): < 0.002 µg/mL
2 | Cc1c(N2CCC(N)C2)c(F)cc2c(=O)c(C(=O)C[N+](=O)[O-])cn(C3CC3)c12 (stereo not shown) [Example 50, 1-cyclopropyl-6-fluoro-8-methyl-7-(3-aminopyrrolidin-1-yl)-3-(2-nitroacetyl)-1,4-dihydro-4-oxoquinoline hydrochloride] | 0.013 | 1.56 | 0.049 | 1.56 | 0.195 | 0.013 | 0.781 | 0.098 | 0.013 | 0.013 | 0.195 | 0.098 | 0.195 | 0.098 | 0.049 | 0.391 | 0.098 | 0.781 | 0.391 | 0.025 | –
3 | CCOC(=O)CC(=O)c1cn(C2CC2)c2c(Cl)c(N3CC=C(CNC)C3)c(F)cc2c1=O [Example 29, 1-cyclopropyl-6-fluoro-8-chloro-7-(3-methylaminomethyl-2,5-dihydropyrrol-1-yl)-3-(2-ethoxycarbonylacetyl)-1,4-dihydro-4-oxoquinoline hydrochloride] | 0.049 | 1.56 | 0.098 | 1.56 | 0.098 | 0.391 | 0.391 | 0.049 | 0.013 | – | 0.195 | 0.049 | 0.013 | 0.013 | 0.013 | 0.098 | 0.013 | 0.781 | 0.391 | 0.013 | MIC ([5]; Enterobacter cloacae, 1321E, 18 h): 0.007 µg/mL
4 | CCOC(=O)CC(=O)c1cn(C2CC2)c2c(Cl)c(N3CC[C@H](N)C3)c(F)cc2c1=O [Example 27, 1-cyclopropyl-6-fluoro-8-chloro-7-(3-3S-aminopyrrolidin-1-yl)-3-(2-ethoxycarbonylacetyl)-1,4-dihydro-4-oxoquinoline hydrochloride] | < 0.002 | 0.195 | 0.013 | 0.391 | 0.391 | < 0.002 | 0.781 | 0.013 | 0.004 | < 0.002 | 0.098 | 0.049 | 0.013 | 0.098 | < 0.002 | 0.391 | 0.049 | 0.195 | 0.098 | – | MIC (Escherichia coli 078; [14]): 0.004 µg/mL
5 | CCOC(=O)C(C(=O)OCC)C(=O)c1cn(C2CC2)c2c(OC)c(N3CCC(NC)C3)c(F)cc2c1=O (stereo not shown) [Example 60, 1-cyclopropyl-6-fluoro-8-methoxy-7-(3-methylaminopyrrolidin-1-yl)-3-(2,2-diethoxycarbonylacetyl)-1,4-dihydro-4-oxoquinoline hydrochloride] | 0.013 | 1.56 | 0.098 | 1.56 | 0.781 | 0.098 | 1.56 | 0.195 | 0.098 | 0.098 | 0.781 | 0.195 | 0.195 | 0.195 | 0.098 | – | 0.098 | 1.56 | 0.781 | 0.098 | MIC ([9]; Streptococcus pyogenes, 77A, 18 h): 0.781 µg/mL
